Earlier results on 1 compound are cited in patent publication US20050148556A1, “Compositions and methods for increasing HDL and HDL-2b levels” (priority 2003, published 2005).

For the series the following is noted: in vivo.

As to `CN(C)C(=N)N=C(N)N` [Metformin, metformin], the “HDL cholesterol levels after metformin therapy” value was “either do not change or increase slightly”.
